Laboratory results taken from publication PMC8222394 (Nature Communications, 2021).
Values joined by “and” are separate entries in the source; they are usually repeats but may differ in a detail not shown here. Identical values can stand only once. Like-named read-outs stand apart in the source and are kept apart here.

What was measured:
[1] = in vitro; conditions: human
[2] = system: SARS-CoV-2 pseudovirus; type: cell-based
[3] = system: SARS-CoV-2 (wildtype-USA-WA1/2020); type: cell-based
[4] = system: E-cadherin; experiment: Immunoblot of E-cadherin in Caco-2 cells; type: cell-based, human
[5] = system: SARS-CoV-2 pseudovirus; experiment: microbe, parasite or virus in culture; type: cell-based; conditions: Severe acute respiratory syndrome-related coronavirus
[6] = system: SARS-CoV-2; conditions: cited from earlier work
[7] = system: TMPRSS2; conditions: for TMPRSS2 densitometry (relative to 0): Fig. 4B, Caco-2, 18 h, listed as HHT
[8] = system: TMPRSS2; conditions: Calu-3 cells
[9] = system: TMPRSS2; conditions: Caco-2 cells, 18 h treatment then washout
[10] = system: corin; experiment: RT-qPCR of CORIN mRNA in Caco-2 cells; type: cell-based, human; conditions: Fig. S3B, Caco-2, 6 hr, relative to Veh
[11] = system: Ace2-GFP; experiment: Immunoblot of Ace2-GFP in Beas-2B cells; type: cell-based
[12] = system: TMPRSS2
[13] = biological target: TMPRSS2 (Homo sapiens, UniProt O15393); experiment: TMPRSS2 activity assay (Boc-Gln-Ala-Arg-MCA fluorescence); type: biochemical; design: purchased LSBio; conditions: for TMPRSS2 activity (FigS9 source data): replicates
TMPRSS2 (Homo sapiens, UniProt O15393), sequence (O15393 106-492): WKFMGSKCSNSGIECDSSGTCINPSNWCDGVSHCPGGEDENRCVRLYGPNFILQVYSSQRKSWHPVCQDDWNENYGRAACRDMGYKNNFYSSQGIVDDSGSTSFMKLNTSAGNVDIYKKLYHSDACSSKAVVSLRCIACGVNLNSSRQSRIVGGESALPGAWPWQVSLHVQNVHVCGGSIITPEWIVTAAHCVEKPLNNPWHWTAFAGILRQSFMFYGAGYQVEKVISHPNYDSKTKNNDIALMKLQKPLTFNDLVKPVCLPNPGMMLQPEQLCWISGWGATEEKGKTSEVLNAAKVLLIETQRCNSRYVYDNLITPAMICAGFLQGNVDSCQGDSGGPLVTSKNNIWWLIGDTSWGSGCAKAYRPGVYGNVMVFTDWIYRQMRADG
Method: Fluorescence (380-15 nm excitation/470-20 nm emission) of the samples was monitored over 4:45 h and the slope of the curves was calculated by linear regression analysis and used as output for TMPRSS2 activity.

[14] = system: TMPRSS2-V5; type: cell-based, human
[15] = system: DCAF1; experiment: qPCR of DCAF1 gene expression in Caco-2 cells; type: cell-based, human
[16] = system: SARS-CoV-2 pseudovirus; type: cell-based; remark: listed apart in the source
[17] = cited from earlier work
[18] = Fig. S3B, Caco-2, 6 hr, relative to Veh

COC(=O)C[C@](O)(CCCC(C)(C)O)C(=O)O[C@@H]1C(OC)=C[C@]23CCCN2CCc2cc4c(cc2[C@H]13)OCO4 [Homoharringtonine]
CC50 [1]: > 10 µM | pseudoviral luciferase reporter signal [2]: dose-dependent reduction of the luciferase signal | signal relative to Control (FigS7 source data) [2]: 0.9261 and 0.5325 and 0.6307 | EC50 observed in TMPRSS2-expressing Calu-3 cells [3]: in the sub-micromolar range | reduction of SARS-CoV-2 viral infection [3]: highly effective in reducing SARS-CoV-2 viral infection | E-cadherin protein [4]: unaffected | IC50 ([5]; Caco-2, read-out: In vitro IC50 (viral entry)): ~30 nM | IC50 ([5]; Caco-2, read-out: concentration for 50% reduction in the level of pseudoviral entry): ~300 nM | EC50 [6]: 2100 nM | time to substantial reduction in TMPRSS2 expression ([7]; Caco-2 cells, 3 µM): within three hours | endogenous TMPRSS2 protein expression ([7]; Caco-2 cells, 18 h): marked reduction | TMPRSS2 densitometry (relative to 0) ([7]; head 0.3 (unit not given)): 0.2253 and 0.285 | TMPRSS2 densitometry (relative to 0) ([7]; head 1): 0.1372 and 0.2276 | TMPRSS2 densitometry (relative to 0) ([7]; head 3): 0.1102 and 0.1378 | TMPRSS2 protein levels [8]: qualitatively similar decreases | recovery of TMPRSS2 levels after drug removal [9]: returned close to baseline roughly six hours after drug removal | CORIN mRNA expression [10]: 1.163 and 0.982 and 0.932 and 0.999 | Ace2 protein [11]: unaffected | TMPRSS2 transcription ([12]; Caco-2 cells): modestly increased | TMPRSS2 mRNA expression, Set1 [12, 18]: 2.5 and 2.009 and 1.288 and 1.873 | TMPRSS2 mRNA expression, set2 [12, 18]: 2.103 and 1.771 and 1.821 and 2.33 | TMPRSS2 mRNA expression, set3 [12, 18]: 2.872 and 1.654 and 1.63 and 2.705 | TMPRSS2 activity (FigS9 source data) ([13]; 0.08 µM): 0.4186 and 0.4254 and 0.3869 and 0.4813 | TMPRSS2 activity (FigS9 source data) ([13]; 0.4 µM): 0.428 and 0.3513 and 0.3883 and 0.3736 | TMPRSS2 activity (FigS9 source data) ([13]; 2 µM): 0.3803 and 0.3278 and 0.3209 and 0.2843 | TMPRSS2 catalytic activity ([13]; recombinant TMPRSS2, preliminary): do not inhibit TMPRSS2 activity | TMPRSS2-V5 versus LacZ-V5 expression [14]: selectively reduced TMPRSS2 expression | DCAF1 gene expression ([15]; Caco-2, 3µM): do not affect DCAF1 gene expression | relative DCAF1 gene expression ([15]; block Vehicle/HFG/HHT, replicates, listed as HHT): 1.551 and 2.869 and 1.311 | pseudoviral GFP expression [16]: markedly reduced levels of GFP expression | clinical adverse events [17]: grade III or IV adverse events, including severe myelosuppression | toxicity profile [17]: relatively toxic agent with an adverse side effect profile
